# Measurements reported in ChEMBL document CHEMBL3763148, “Synthesis, structure elucidation, DNA-PK and PI3K and anti-cancer activity of 8- and 6-aryl-substituted-1-3-benzoxazines” (Eur J Med Chem, 2016).
# Tests used:
# [1] = biological target: Phosphatidylinositol 4,5-bisphosphate 3-kinase catalytic subunit gamma isoform (Homo sapiens) (UniProt P48736); test: Inhibition of PI3Kgamma (unknown origin) at 10 uM incubated for 60 mins by kinase-glo luminescence assay
# [2] = biological target: T1, Phosphatidylinositol 4,5-bisphosphate 3-kinase catalytic subunit alpha isoform (Homo sapiens, UniProt P42336); test: Inhibition of PI3Kalpha (unknown origin) incubated for 60 mins by kinase-glo luminescence assay
# [3] = biological target: T2, Phosphatidylinositol 4,5-bisphosphate 3-kinase catalytic subunit beta isoform (Homo sapiens, UniProt P42338); test: Inhibition of PI3Kbeta (unknown origin) incubated for 60 mins by kinase-glo luminescence assay
# [4] = biological target: T3, Phosphatidylinositol 4,5-bisphosphate 3-kinase catalytic subunit delta isoform (Homo sapiens, UniProt O00329); test: Inhibition of PI3Kdelta (unknown origin) incubated for 60 mins by kinase-glo luminescence assay
# T3 sequence (O00329 whole entry): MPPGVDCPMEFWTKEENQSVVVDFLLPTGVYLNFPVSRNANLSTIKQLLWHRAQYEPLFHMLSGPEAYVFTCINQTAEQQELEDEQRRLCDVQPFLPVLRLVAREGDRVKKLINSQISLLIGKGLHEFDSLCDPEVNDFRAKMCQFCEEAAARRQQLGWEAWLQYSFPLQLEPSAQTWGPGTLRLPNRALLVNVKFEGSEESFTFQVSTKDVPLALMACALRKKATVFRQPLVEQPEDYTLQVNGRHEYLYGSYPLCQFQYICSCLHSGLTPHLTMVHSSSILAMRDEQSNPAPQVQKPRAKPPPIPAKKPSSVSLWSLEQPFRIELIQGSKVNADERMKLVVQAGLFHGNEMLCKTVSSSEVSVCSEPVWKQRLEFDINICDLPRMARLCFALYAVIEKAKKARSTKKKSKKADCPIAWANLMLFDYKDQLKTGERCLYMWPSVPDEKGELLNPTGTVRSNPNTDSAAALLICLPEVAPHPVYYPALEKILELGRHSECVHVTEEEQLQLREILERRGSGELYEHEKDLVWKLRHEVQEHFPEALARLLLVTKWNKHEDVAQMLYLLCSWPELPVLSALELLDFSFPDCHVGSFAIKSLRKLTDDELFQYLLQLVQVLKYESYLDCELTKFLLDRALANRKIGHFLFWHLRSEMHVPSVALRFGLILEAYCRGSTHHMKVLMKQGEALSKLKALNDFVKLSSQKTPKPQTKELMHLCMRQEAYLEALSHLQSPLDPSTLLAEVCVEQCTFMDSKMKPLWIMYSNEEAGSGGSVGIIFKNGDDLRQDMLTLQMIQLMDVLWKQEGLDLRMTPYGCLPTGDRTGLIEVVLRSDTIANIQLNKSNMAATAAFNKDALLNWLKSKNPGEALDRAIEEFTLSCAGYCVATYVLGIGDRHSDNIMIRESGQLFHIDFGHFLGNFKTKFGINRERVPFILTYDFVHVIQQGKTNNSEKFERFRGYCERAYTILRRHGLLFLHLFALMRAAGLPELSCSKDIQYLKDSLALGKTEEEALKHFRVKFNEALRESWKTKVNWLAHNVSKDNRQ
# [5] = biological target: T4, DNA-dependent protein kinase catalytic subunit (Homo sapiens, UniProt P78527); test: Inhibition of human DNA-PK using EPPLSQEAFADLWKK as substrate by HTRF assay
# [6] = biological target: T1, Phosphatidylinositol 4,5-bisphosphate 3-kinase catalytic subunit alpha isoform; test: Inhibition of PI3Kalpha (unknown origin) at 10 uM incubated for 60 mins by kinase-glo luminescence assay
# [7] = biological target: T2, Phosphatidylinositol 4,5-bisphosphate 3-kinase catalytic subunit beta isoform; test: Inhibition of PI3Kbeta (unknown origin) at 10 uM incubated for 60 mins by kinase-glo luminescence assay
# [8] = biological target: T5, Phosphatidylinositol 4,5-bisphosphate 3-kinase catalytic subunit delta isoform (Homo sapiens) (UniProt O00329); test: Inhibition of PI3Kdelta (unknown origin) at 10 uM incubated for 60 mins by kinase-glo luminescence assay
# T5 sequence (whole entry): T3 sequence (O00329 whole entry)
# [9] = biological target: T4, DNA-dependent protein kinase catalytic subunit; test: Inhibition of human DNA-PK using EPPLSQEAFADLWKK as substrate at 10 uM by HTRF assay
# T1 sequence (P42336 whole entry, canonical isoform): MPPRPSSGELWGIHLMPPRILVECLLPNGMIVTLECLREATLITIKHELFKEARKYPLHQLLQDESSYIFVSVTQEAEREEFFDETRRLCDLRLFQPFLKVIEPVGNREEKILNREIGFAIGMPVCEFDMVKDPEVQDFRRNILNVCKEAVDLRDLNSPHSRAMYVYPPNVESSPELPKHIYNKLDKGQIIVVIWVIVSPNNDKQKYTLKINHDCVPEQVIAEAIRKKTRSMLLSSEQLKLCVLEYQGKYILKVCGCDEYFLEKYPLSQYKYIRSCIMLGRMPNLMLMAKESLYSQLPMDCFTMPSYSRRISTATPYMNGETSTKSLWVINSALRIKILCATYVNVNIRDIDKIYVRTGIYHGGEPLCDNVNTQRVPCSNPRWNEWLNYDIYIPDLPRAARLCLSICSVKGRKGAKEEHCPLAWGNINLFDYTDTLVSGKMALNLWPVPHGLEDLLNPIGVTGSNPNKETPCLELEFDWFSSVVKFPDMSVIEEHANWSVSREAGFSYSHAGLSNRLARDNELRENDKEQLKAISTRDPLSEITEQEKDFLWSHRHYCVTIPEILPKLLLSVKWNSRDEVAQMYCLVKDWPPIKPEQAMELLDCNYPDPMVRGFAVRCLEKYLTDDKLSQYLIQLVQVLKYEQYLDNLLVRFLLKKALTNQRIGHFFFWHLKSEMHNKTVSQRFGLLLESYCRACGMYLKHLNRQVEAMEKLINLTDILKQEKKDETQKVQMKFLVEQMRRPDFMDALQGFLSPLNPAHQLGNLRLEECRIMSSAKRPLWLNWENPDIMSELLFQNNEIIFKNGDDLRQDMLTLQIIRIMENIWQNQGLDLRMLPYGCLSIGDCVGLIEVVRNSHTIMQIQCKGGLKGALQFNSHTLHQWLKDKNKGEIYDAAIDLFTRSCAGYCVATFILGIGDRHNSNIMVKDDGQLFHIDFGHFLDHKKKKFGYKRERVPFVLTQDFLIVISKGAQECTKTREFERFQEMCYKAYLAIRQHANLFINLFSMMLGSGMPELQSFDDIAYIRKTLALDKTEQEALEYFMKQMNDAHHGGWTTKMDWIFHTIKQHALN
# T4 sequence (P78527 whole entry, canonical isoform): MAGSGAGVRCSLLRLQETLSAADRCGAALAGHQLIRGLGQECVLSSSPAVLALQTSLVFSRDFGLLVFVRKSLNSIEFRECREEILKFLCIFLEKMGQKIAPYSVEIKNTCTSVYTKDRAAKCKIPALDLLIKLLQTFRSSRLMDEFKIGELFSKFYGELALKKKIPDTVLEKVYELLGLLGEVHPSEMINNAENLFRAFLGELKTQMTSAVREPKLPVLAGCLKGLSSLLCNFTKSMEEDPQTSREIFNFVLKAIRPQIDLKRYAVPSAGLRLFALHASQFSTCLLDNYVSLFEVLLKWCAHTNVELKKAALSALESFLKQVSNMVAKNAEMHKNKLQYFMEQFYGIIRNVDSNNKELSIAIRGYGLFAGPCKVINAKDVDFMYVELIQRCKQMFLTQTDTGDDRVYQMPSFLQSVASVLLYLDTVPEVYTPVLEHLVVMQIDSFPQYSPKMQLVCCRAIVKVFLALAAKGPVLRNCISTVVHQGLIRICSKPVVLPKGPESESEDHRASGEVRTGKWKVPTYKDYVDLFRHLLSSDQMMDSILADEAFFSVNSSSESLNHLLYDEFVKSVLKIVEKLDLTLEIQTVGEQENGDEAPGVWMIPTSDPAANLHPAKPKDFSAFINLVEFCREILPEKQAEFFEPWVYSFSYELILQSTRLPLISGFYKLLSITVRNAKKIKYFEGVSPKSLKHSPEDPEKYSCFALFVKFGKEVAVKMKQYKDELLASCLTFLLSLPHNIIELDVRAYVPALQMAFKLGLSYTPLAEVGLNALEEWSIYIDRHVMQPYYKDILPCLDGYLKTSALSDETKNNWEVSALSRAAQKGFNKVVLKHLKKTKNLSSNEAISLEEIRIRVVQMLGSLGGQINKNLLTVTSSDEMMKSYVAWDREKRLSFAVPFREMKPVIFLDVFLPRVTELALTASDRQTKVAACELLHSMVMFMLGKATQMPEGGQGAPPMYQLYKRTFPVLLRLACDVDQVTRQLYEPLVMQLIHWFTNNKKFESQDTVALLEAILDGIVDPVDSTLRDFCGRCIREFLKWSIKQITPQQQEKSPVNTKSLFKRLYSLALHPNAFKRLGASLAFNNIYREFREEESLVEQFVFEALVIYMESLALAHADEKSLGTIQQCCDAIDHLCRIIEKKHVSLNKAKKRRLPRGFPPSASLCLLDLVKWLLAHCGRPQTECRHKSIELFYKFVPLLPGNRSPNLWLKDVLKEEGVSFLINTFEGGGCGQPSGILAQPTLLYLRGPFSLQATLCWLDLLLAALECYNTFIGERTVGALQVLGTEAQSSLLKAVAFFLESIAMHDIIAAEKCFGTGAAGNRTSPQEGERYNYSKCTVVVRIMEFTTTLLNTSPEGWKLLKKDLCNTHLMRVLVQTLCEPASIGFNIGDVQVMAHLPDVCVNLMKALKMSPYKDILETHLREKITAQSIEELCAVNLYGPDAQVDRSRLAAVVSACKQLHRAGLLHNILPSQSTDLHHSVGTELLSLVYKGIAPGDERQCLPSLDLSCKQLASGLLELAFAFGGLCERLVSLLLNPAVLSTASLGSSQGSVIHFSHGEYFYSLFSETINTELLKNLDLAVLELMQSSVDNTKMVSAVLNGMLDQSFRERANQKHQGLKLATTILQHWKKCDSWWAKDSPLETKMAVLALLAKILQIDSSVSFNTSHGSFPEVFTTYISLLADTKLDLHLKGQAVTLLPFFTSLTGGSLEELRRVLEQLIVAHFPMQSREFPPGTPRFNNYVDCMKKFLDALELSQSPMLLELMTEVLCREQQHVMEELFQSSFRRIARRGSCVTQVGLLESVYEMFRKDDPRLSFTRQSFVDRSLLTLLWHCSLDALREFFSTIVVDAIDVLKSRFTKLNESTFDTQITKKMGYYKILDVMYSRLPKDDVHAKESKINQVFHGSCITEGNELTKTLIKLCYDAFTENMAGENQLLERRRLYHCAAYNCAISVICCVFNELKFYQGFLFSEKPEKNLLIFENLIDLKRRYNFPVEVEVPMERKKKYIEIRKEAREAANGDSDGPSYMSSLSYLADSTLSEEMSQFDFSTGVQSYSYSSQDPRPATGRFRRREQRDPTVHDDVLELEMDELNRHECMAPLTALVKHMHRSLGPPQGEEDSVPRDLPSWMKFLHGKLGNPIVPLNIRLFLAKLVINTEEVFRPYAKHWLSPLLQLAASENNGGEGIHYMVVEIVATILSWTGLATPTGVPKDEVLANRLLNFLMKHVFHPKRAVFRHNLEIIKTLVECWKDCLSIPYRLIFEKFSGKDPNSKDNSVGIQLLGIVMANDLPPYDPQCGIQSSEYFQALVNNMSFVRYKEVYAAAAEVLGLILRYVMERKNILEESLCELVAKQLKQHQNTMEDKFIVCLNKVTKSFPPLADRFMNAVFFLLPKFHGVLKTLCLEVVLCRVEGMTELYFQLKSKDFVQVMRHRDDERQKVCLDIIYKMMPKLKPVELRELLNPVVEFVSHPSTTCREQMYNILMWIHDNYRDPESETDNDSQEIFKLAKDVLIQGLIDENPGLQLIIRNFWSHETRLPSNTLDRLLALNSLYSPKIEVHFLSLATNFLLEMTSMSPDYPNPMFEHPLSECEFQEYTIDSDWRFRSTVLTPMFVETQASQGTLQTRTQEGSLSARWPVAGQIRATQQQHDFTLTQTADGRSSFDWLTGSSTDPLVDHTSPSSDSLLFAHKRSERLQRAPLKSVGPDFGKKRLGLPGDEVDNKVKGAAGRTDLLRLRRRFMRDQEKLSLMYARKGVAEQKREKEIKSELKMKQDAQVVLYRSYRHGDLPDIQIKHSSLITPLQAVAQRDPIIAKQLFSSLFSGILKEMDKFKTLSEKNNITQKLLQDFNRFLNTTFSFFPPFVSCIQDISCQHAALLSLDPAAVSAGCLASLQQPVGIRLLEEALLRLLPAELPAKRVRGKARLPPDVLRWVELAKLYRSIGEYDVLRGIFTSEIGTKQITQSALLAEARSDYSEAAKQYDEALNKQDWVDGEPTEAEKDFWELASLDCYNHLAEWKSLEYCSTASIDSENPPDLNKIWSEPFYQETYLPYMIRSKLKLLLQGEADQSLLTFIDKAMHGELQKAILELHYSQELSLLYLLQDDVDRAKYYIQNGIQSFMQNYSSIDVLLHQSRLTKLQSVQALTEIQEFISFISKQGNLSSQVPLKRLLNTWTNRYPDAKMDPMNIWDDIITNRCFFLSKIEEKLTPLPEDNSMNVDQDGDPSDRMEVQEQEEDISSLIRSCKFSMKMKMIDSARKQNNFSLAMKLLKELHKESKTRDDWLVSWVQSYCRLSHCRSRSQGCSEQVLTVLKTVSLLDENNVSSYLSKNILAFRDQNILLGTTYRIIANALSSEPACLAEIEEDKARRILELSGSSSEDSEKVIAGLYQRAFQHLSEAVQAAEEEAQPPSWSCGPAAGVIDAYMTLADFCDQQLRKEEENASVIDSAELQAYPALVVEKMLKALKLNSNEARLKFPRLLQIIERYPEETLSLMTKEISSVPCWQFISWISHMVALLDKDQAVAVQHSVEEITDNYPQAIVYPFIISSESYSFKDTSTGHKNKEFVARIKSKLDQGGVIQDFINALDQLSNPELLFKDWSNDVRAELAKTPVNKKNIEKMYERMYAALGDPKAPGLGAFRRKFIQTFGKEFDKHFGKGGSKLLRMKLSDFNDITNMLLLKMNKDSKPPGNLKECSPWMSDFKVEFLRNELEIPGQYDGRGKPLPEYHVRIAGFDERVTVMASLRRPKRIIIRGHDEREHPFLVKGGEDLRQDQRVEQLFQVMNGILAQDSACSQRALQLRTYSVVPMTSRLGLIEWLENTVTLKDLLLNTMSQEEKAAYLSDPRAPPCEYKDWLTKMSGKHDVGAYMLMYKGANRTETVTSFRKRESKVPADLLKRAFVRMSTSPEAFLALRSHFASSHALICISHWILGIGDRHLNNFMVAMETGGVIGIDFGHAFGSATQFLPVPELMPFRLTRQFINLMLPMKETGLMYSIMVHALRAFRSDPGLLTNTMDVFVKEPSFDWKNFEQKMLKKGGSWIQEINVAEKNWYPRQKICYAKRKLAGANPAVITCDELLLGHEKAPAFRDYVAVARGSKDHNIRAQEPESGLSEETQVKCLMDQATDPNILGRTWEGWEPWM
inhibition [1],IC50 [2],IC50 [3],IC50 [4],IC50 [5],inhibition [6],inhibition [7],inhibition [8],inhibition [9],Structure (SMILES)
31%,10 µM,3.2 µM,9 µM,15.7 µM,,,,,O=c1nc(N2CCOCC2)oc2c(-c3ccc(CO)cc3)cccc12
4%,,,,,10%,0%,0%,4%,O=c1nc(N2CCOCC2)oc2ccc(-c3cccc4ccccc34)cc12
,,,,,,,,24%,O=c1nc(N2CCOCC2)oc2ccc(-c3cccs3)cc12
14%,,,,5.77 µM,35%,15%,16%,,O=c1nc(N2CCOCC2)oc2c(-c3cc4ccccc4s3)cc(Cl)cc12
3%,,,,,3%,20%,0%,0%,O=c1nc(N2CCOCC2)oc2ccc(-c3cc4ccccc4s3)cc12
0%,,10 µM,,63.5 µM,13%,,4%,,Nc1cccc(-c2cccc3c(=O)nc(N4CCOCC4)oc23)c1
,,,0.95 µM,0.3 µM,,,,,O=c1cc(N2CCOCC2)oc2c(-c3ccccc3)cccc12 [LY-294002]
,,,,,,,,8%,NC(=O)c1ccc(-c2ccc3oc(N4CCOCC4)nc(=O)c3c2)cc1
,,,,,,,,21%,O=c1nc(N2CCOCC2)oc2ccc(-c3ccsc3)cc12
1%,,,,0.564 µM,0%,59%,36%,,O=c1nc(N2CCOCC2)oc2c(-c3cccc4c3sc3ccccc34)cc(Cl)cc12
0%,,,,,11%,36%,3%,6%,O=c1nc(N2CCOCC2)oc2ccc(-c3cccnc3)cc12
10%,,,,,10%,0%,0%,7%,O=c1nc(N2CCOCC2)oc2ccc(-c3ccc(Cl)cc3)cc12
16%,> 10 µM,,10 µM,10.9 µM,,34%,,,O=c1nc(N2CCOCC2)oc2c(-c3ccc(Cl)cc3)cccc12
0%,,,10 µM,6.05 µM,42%,0%,,,O=c1nc(N2CCOCC2)oc2c(-c3cccs3)cc(Cl)cc12
,,,,,,,,7%,Nc1cccc(-c2ccc3oc(N4CCOCC4)nc(=O)c3c2)c1
0%,,,,,7%,17%,0%,8%,COc1ccc(-c2ccc3oc(N4CCOCC4)nc(=O)c3c2)cc1
0%,,,,,7%,0%,0%,11%,O=c1nc(N2CCOCC2)oc2ccc(-c3ccc(CO)cc3)cc12
17%,10 µM,,3.7 µM,2.12 µM,,15%,,,O=c1nc(N2CCOCC2)oc2c(-c3cc4ccccc4s3)cccc12
0%,,,2.6 µM,12.3 µM,16%,0%,,,COc1ccc(-c2cc(Cl)cc3c(=O)nc(N4CCOCC4)oc23)cc1
9%,,,,,2%,0%,0%,1%,O=c1nc(N2CCOCC2)oc2ccc(-c3ccccc3)cc12
0%,,,,,11%,13%,0%,7%,O=c1nc(N2CCOCC2)oc2ccc(-c3cccc(-c4ccccc4)c3)cc12
24%,,> 10 µM,,78.4 µM,26%,,37%,,O=c1nc(N2CCOCC2)oc2c(-c3cccnc3)cccc12
4%,,,,,3%,29%,0%,23%,O=c1nc(N2CCOCC2)oc2ccc(/C=C/c3ccccc3)cc12
0%,,,,,5%,6%,0%,12%,O=c1nc(N2CCOCC2)oc2ccc(-c3cccc4c3oc3ccccc34)cc12
